Assay results from patent US20150157022A1, “S[…] CONTROL AND IMPROVED CROP TOLERANCE FROM COMBINATIONS OF 2,4-D-CHOLINE AND G[…] 2,4-D- AND GLUFOSINATE-TOLERANT SOYBEANS, CORN, COTTON” (Dow AgroSciences LLC, priority 2013, published 2015).
Several values for one entry are separate records, joined by “and”; a condition that tells them apart may be missing. Identical values can stand only once. Counter-ions that a name gives are not always drawn.

Assays:
[1] = tested on: Amaranthus palmeri S. Wats. (Palmer amaranth, AMAPA); experiment: Field trial, post-emergence weed control (% visual control), AMAPA; format: in vivo
Description: (§1) These trials were conducted under field conditions in multiple states in the United States, including but not limited to Arkansas, Illinois, Indiana, Minnesota, Mississippi,
(§2) Nebraska, Ohio, Oklahoma, Texas, South Carolina and South Dakota. […] Treatments were applied with small plot backpack sprayers, using pressurized air or carbon dioxide (CO2) as propellant. Pressure varied from 22-50 pounds per square inch (psi), with spray tips typically of a Flat Fan type applying water diluent at 15 gallons per acre (GPA). Boom sizes varied from 6.3-10 ft in width. Treatments were applied to soybean, cotton, corn or fallow crop land. Weed sizes varied, but all treatments were applied as post-emergence treatments to weeds from 2 leaf to 2 tiller growth stages varying from 2 to 15 inches in height. The weed spectrum included, but was not limited to, Amaranthus palmeri S. Wats. (Palmer amaranth, AMAPA), Conyza canadensis (L.) Cronq. (horseweed, ERICA), Salsola tragus L. (Russian thistle, SASKR) and Sesbania exaltata (hemp sesbania, SEBEX).
(§3) The 2,4-D-choline salt formulation was a 456 g ae/L SL. […] All treatments were mixed in water at appropriate formulated product rates to achieve the desired rates as shown based on a unit area of application (hectare). Treatments were rated at 2 to 28 days after application (DAA) as compared to the untreated control plants. The trial sites had naturally occurring populations of weeds. The treated plots and control plots were rated blind at various intervals after application.
(§4) Colby's equation was used to determine the herbicidal effects expected from the mixtures (Colby, S. R. Calculation of the synergistic and antagonistic response of herbicide combinations. Weeds 1967, 15, 20-22). A t-test (alpha=0.05) between Colby predictions and observed combinations was used to test for significant differences indicating synergy or antagonism using replicate data.
(§5) The following equation was used to calculate the expected activity of mixtures containing two active ingredients, A and B:
(§6) Expected=A+B−(A×B/100) • A=observed efficacy of active ingredient A at the same concentration as used in the mixture; • B=observed efficacy of active ingredient B at the same concentration as used in the mixture.

[2] = tested on: Salsola tragus L. (Russian thistle, SASKR); experiment: Field trial, post-emergence weed control (% visual control), SASKR; format: in vivo
Description: as §1, §2, §3, §4, §5, §6

[3] = tested on: Sesbania exaltata (hemp sesbania, SEBEX); experiment: Field trial, post-emergence weed control (% visual control), SEBEX; format: in vivo
Description: as §1, §2, §3, §4, §5, §6

[4] = tested on: Conyza canadensis (L.) Cronq. (horseweed, ERICA); experiment: Field trial, post-emergence weed control (% visual control), ERICA; format: in vivo
Description: as §1, §2, §3, §4, §5, §6

AAD12 Soybean (GLXMA) = experiment: Field crop tolerance trial in 2,4-D- and glufosinate-tolerant soybean (% visual injury, chlorosis, growth inhibition)
Description: as §1, §2
2,4-D- and glufosinate-tolerant soybeans, corn and cotton and optionally a glyphosate trait in a breeding (CP4 EPSPS) or a molecular stack (2mEPSPS) were used in all tolerance trials.
as §3, with “application. […]” for “application.”

## CP(=O)(O)CCC(N)C(=O)O (stereo not shown) [Glufosinate-ammonium, ammonium (3-amino-3-carboxypropyl)(methyl)phosphinate]
[1]; 7 DAA, 542 g ae/ha
  Mean % weed control: 80.0%
[1]; 10 DAA, 542 g ae/ha
  Mean % weed control: 54.3%
[1]; 13 DAA, 542 g ae/ha
  Mean % weed control: 75.0%
[1]; 16 DAA, 542 g ae/ha
  Mean % weed control: 65.0%
[1]; 21 DAA, 542 g ae/ha
  Mean % weed control: 51.3%
[1]; 22 DAA, 542 g ae/ha
  Mean % weed control: 56.3%
[2]; 14 DAA, 542 g ae/ha
  Mean % weed control: 12.5%
[2]; 21 DAA, 542 g ae/ha
  Mean % weed control: 6.3%
[3]; 8 DAA, 542 g ae/ha
  Mean % weed control: 73.8%
[3]; 16 DAA, 542 g ae/ha
  Mean % weed control: 78.8%
[3]; 23 DAA, 542 g ae/ha
  Mean % weed control: 65.0%
[4]; 7 DAA, 542 g ae/ha
  Mean % weed control: 75.0%
[4]; 13 DAA, 542 g ae/ha
  Mean % weed control: 85.0%
[4]; 22 DAA, 542 g ae/ha
  Mean % weed control: 80.0%
[4]; 28 DAA, 542 g ae/ha
  Mean % weed control: 98.0%

## O=C(O)COc1ccc(Cl)cc1Cl [2,4-D-Choline salt, 2-hydroxy-N,N,N-trimethylethanaminium 2-(2,4-dichlorophenoxy)acetate]
[1]; 7 DAA, 800 g ae/ha
  Mean % weed control: 47.5%
[1]; 10 DAA, 1065 g ae/ha
  Mean % weed control: 55.0%
[1]; 13 DAA, 1065 g ae/ha
  Mean % weed control: 45.0%
[1]; 16 DAA, 800 g ae/ha
  Mean % weed control: 62.5%
[1]; 21 DAA, 1065 g ae/ha
  Mean % weed control: 38.8%
[1]; 22 DAA, 800 g ae/ha
  Mean % weed control: 48.8%
[2]; 14 DAA, 1065 g ae/ha
  Mean % weed control: 67.5%
[2]; 21 DAA, 1065 g ae/ha
  Mean % weed control: 65.0%
AAD12 Soybean (GLXMA); 2 DAA, 2130 g ae/ha
  Mean % crop chlorosis: 0.0% and 2.3%
  Mean % crop injury: 3.5% and 5.0%
AAD12 Soybean (GLXMA); 3 DAA, 1065 g ae/ha
  Mean % crop chlorosis: 0.0%
  Mean % crop injury: 0.3%
AAD12 Soybean (GLXMA); 3 DAA, 2130 g ae/ha
  Mean % crop chlorosis: 0.0% and 1.3% and 0.8% and 0.5%
  Mean % crop injury: 0.3%
AAD12 Soybean (GLXMA); 4 DAA, 1065 g ae/ha
  Mean % crop chlorosis: 0.0%
  Mean % crop injury: 0.0%
AAD12 Soybean (GLXMA); 4 DAA, 2130 g ae/ha
  Mean % crop chlorosis: 0.0% and 0.7%
  Mean % crop injury: 1.0%
AAD12 Soybean (GLXMA); 6 DAA, 1065 g ae/ha
  Mean % crop injury: 4.0%
AAD12 Soybean (GLXMA); 6 DAA, 2130 g ae/ha
  Mean % crop injury: 4.0%
AAD12 Soybean (GLXMA); 7 DAA, 1065 g ae/ha
  Mean % crop chlorosis: 0.0%
AAD12 Soybean (GLXMA); 7 DAA, 2130 g ae/ha
  Mean % crop chlorosis: 0.0% and 1.7% and 1.3% and 3.0%
  Mean % crop growth inhibition: 1%
  Mean % crop injury: 4.0% and 13.3%
AAD12 Soybean (GLXMA); 8 DAA, 1065 g ae/ha
  Mean % crop chlorosis: 0.0%
AAD12 Soybean (GLXMA); 8 DAA, 2130 g ae/ha
  Mean % crop chlorosis: 0.0%
AAD12 Soybean (GLXMA); 9 DAA, 1065 g ae/ha
  Mean % crop chlorosis: 0.0%
  Mean % crop injury: 0.0%
AAD12 Soybean (GLXMA); 9 DAA, 2130 g ae/ha
  Mean % crop chlorosis: 0.0%
  Mean % crop injury: 0.0%
AAD12 Soybean (GLXMA); 13 DAA, 1065 g ae/ha
  Mean % crop chlorosis: 0.0%
  Mean % crop injury: 2.0%
AAD12 Soybean (GLXMA); 13 DAA, 2130 g ae/ha
  Mean % crop chlorosis: 0.0%
  Mean % crop injury: 3.3%
AAD12 Soybean (GLXMA); 14 DAA, 1065 g ae/ha
  Mean % crop chlorosis: 0.0%
  Mean % crop injury: 3.0% and 0.0%
AAD12 Soybean (GLXMA); 14 DAA, 2130 g ae/ha
  Mean % crop chlorosis: 0.0% and 0.8% and 1.3%
  Mean % crop growth inhibition: 0%
  Mean % crop injury: 2.3%
AAD12 Soybean (GLXMA); 15 DAA, 2130 g ae/ha
  Mean % crop chlorosis: 0.0%
  Mean % crop growth inhibition: 0%
  Mean % crop injury: 0.0%
[3]; 8 DAA, 800 g ae/ha
  Mean % weed control: 32.5%
[3]; 16 DAA, 800 g ae/ha
  Mean % weed control: 42.5%
[3]; 23 DAA, 800 g ae/ha
  Mean % weed control: 38.8%
[4]; 7 DAA, 1065 g ae/ha
  Mean % weed control: 40.0%
[4]; 13 DAA, 1065 g ae/ha
  Mean % weed control: 40.0%
[4]; 22 DAA, 1065 g ae/ha
  Mean % weed control: 40.0%
[4]; 28 DAA, 1065 g ae/ha
  Mean % weed control: 30.0%
